# Target: T1, APOL1 (Homo sapiens, UniProt O14791)
# T1 sequence (O14791 1-398): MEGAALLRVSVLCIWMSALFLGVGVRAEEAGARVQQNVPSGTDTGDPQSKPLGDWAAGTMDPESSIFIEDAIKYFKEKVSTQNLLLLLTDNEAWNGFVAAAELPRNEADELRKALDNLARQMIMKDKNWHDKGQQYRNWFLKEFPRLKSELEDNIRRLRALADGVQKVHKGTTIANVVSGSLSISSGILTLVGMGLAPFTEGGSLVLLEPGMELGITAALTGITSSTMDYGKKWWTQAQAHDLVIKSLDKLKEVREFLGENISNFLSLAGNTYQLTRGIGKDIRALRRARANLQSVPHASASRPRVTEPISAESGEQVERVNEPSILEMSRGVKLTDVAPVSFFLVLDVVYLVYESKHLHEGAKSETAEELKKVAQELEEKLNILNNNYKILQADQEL
# Assay: MultiTox-Fluor Multiplex Cytotoxicity Assay, tet-inducible APOL1 T-REx-HEK293 cells (G0, G1 or G2 clone not specified for Table 20)
# Assay type: cell-based
# Conditions: tet-induced, 24 hours with compound, ratio of dead to live cells, read-out: IP50 (i.e., IC50 for cell proliferation)
# Procedure: Human embryonic kidney (HEK293) cell lines containing a tet-inducible expression system (T-REx™; Invitrogen, Carlsbad, CA) and Adeno-associated virus site 1 pAAVS1-Puro-APOL1 G0 or pAAVS1-Puro-APOL1 G1 or pAAVS1-Puro-APOL1 G2 Clones G0 DC2.13, G1 DC3.25, and G2 DC4.44 were grown in a T-225 flask at ˜90% confluency in cell growth media (DMEM, 10% Tet-free FBS, 2 mM L-glutamine, 100 Units/mL penicillin-streptomycin, 5 μg/mL blasticidin S HCl, 1 μg/mL puromycin dihydrochloride). Cells were washed with DPBS and then trypsinized to dissociate from the flask. Media was used to quench the trypsin, cells were then pelleted at 200 g and resuspended in fresh cell assay media (DMEM, 2% Tet-free FBS, 2 mM L-glutamine, 100 Units/mL penicillin-streptomycin). Cells were counted and diluted to 1.17×10^6 cells/mL. 20 μL of cells (23,400/well) were dispensed in every well of a 384-well Poly-D-Lysine coated plate using the Multidrop dispenser. The plates were then incubated at room temperature for one hour.
# Tetracycline is needed to induce APOL1 expression. 1 mg/mL tet stock in water was diluted to 250 ng/mL (5×) in cell assay media. 60 μL of cell assay media (no tet control) was dispensed in columns 1 and 24, and 60 μL of 5× tet in 384-PP-round bottom plate was dispensed in columns 2 to 23 with the Multidrop dispenser.
# Assay ready plates from the Global Compound Archive were ordered using template 384_APOL1Cell_DR10n2_50 uM_v3. Compounds were dispensed at 200 nL in DMSO. The final top concentration was 10 μM with a 10 point 3-fold dilution in duplicate in the MultiTox assay.
# 20 μL was transferred from the 5× tet plate to the ARP and mixed, then 5 μL of 5× tet and the compounds were transferred to the cell plate and mixed using the Bravo. The cell plate was placed in the humidified 37° C. 5% CO2 incubator for 24 hours.
# The MultiTox-Fluor Multiplex Cytotoxicity Assay was performed in accordance with the manufacturer's protocol. After cells were incubated with tet and compound for 24 hours, 25 μL of 1× MultiTox reagent was added to each well using the Multidrop dispenser; the plates were placed on a plate shaker (600 rpm) for 2 minutes, then centrifuged briefly and placed back in the 37° C. incubator for 30 minutes. The cell viability (excitation: 400 nm, emission: 486 nm) and cytotoxicity (excitation: 485 nm, emission: 535 nm) were read using the EnVision plate reader. A ratio of dead (cytotoxicity) to live (viability) cells was reported. Data was exported and analyzed in Genedata. Data was normalized using percent of control, no tet (100% viability), and 50 ng/mL tet treated (0% viability), and fit using Smart Fit settings in Genedata.
row,SMILES,IC50 [nM]
1,C[C@H]1C[C@@]2(CCN1Cc1cn(C(C)(CO)CO)nn1)OCCc1ccc(Cl)cc12 [Compound 153],≥ 500
2,"Cc1ncc(-n2cc(CN3CCC4(CC3)OC(C(N)=O)c3ccc(Cl)cc34)cn2)cn1 (stereo not shown) [Compound 209, 5-chloro-1′-[[1-(2-methylpyrimidin-5-yl)pyrazol-4-yl]methyl]spiro[1H-isobenzofuran-3,4′-piperidine]-1-carboxamide]",≤ 50
3,CC(=O)Nc1ccc(CN2CCC3(CC2)C(=O)Nc2ccc(Cl)cc23)cc1 [Compound 6],50 to 500
4,"C[C@H]1C[C@@]2(CCN1Cc1cn(Cc3ccnc(CO)c3)nn1)OCCc1ccc(Cl)cc12 [Compound 142, (4-((4-(((1R,2′S)-7-chloro-2′-methylspiro[isochromane-1,4′-piperidin]-1′-yl)methyl)-1H-1,2,3-triazol-1-yl)methyl)pyridin-2-yl)methanol]",50 to 500
5,Cc1ccc2c(c1)[C@]1(CCN(Cc3cnn(C)c3)[C@@H](C)C1)OCC2 [Compound 91],≤ 50
6,CN1C(=O)C2(CCN(Cc3cn[nH]c3)CC2)c2cc(Cl)ccc21 [Compound 38],50 to 500
7,"CNC(=O)C1OC2(CCN(Cc3cnn(-c4ccccc4)c3)CC2)c2ccccc21 (stereo not shown) [Compound 190, N-methyl-1′-[(1-phenylpyrazol-4-yl)methyl]spiro[1H-isobenzofuran-3,4′-piperidine]-1-carboxamide]",≥ 500
8,"NC(=O)C1OC2(CCN(Cc3cn[nH]c3)CC2)c2cc(Cl)ccc21 (stereo not shown) [Compound 226, 5-chloro-1′-(1H-pyrazol-4-ylmethyl)spiro[1H-isobenzofuran-3,4′-piperidine]-1-carboxamide]",≤ 50
9,C[C@H]1C[C@@]2(CCN1Cc1cnn(C(F)F)c1)OCCc1ccc(Cl)cc12 [Compound 122],≤ 50
10,NC(=O)C1OC2(CCN(Cc3cncnc3)CC2)c2cc(Cl)ccc21 (stereo not shown) [Compound 252],≥ 500
11,C[C@H]1C[C@@]2(CCN1Cc1cn(CC3(C(N)=O)CC3)nn1)OCCc1ccc(Cl)cc12 [Compound 188],≤ 50
12,CCn1cc(CN2CC[C@]3(C[C@@H]2C)OCCc2ccc(Cl)cc23)nn1 [Compound 154],50 to 500
13,Cc1ccc2c(c1)C1(CCN(Cc3ccccc3)C(C)C1)OCC2 (stereo not shown) [Compound 136],50 to 500
14,"Cc1ccc2c(c1)C1(CCN(Cc3cnn(CCS(C)(=O)=O)c3)CC1)OC2(C)C [Compound 289, 1,1,5-trimethyl-1′-[[1-(2-methylsulfonylethyl)pyrazol-4-yl]methyl]spiro[isobenzofuran-3,4′-piperidine]]",≥ 500
15,NC(=O)C1OC2(CCN(Cc3c[nH]c4cnccc34)CC2)c2cc(Cl)ccc21 (stereo not shown) [Compound 248],≤ 50
16,COc1ccc(CN2CCC3(CC2)C(=O)Nc2ccc(Cl)cc23)cc1F [Compound 8],50 to 500
17,C[C@H]1C[C@@]2(CCN1Cc1cn(CC(O)C(C)(C)O)nn1)OCCc1ccc(Cl)cc12 (stereo partly shown) [Compound 143],≤ 50
18,Cc1cc(CN2CCC3(CC2)OC(C(N)=O)c2ccc(Cl)cc23)ccn1 (stereo not shown) [Compound 261],50 to 500
19,C[C@H]1C[C@@]2(CCN1Cc1cn(Cc3nnc(N(C)C)[nH]3)nn1)OCCc1ccc(Cl)cc12 [Compound 185],50 to 500
20,"CS(=O)(=O)CCn1cc(CN2CCC3(CC2)CC(N2CCNC2=O)c2ccc(Cl)cc23)cn1 (stereo not shown) [Compound 312, 1-[5-chloro-1′-[[1-(2-methylsulfonylethyl)pyrazol-4-yl]methyl]spiro[indane-3,4′-piperidine]-1-yl]imidazolidin-2-one]",≥ 500
21,CN1C(=O)C2(CCN(Cc3cnn(CCS(C)(=O)=O)c3)CC2)c2cc(C(F)(F)F)ccc21 [Compound 83],≥ 500
22,NC(=O)C1OC2(CCN(Cc3cnn(-c4ccccn4)c3)CC2)c2cc(Cl)ccc21 (stereo not shown) [Compound 201],≤ 50
23,C[C@H]1C[C@@]2(CCN1Cc1cn(Cc3cnn4c3C(=O)N(C)CC4)nn1)OCCc1ccc(Cl)cc12 [Compound 166],50 to 500

row,SMILES,IC50 [nM]
1,C[C@H]1C[C@@]2(CCN1Cc1cn(CC3(CO)CC3)nn1)OCCc1ccc(Cl)cc12 [Compound 148],≤ 50
2,"Cc1ccc2c(c1)C1(CCN(Cc3cnn(C)c3)CC1)SC2 [Compound 304, 5-methyl-1′-[(1-methylpyrazol-4-yl)methyl]spiro[1H-2-benzothiophene-3,4′-piperidine]]",≥ 500
3,"CC1COC2(CCN(Cc3cnn(C)c3)CC2)c2ccccc21 (stereo not shown) [Compound 89, 4-methyl-1′-[(1-methylpyrazol-4-yl)methyl]spiro[isochromane-1,4′-piperidine]]",≥ 500
4,"CC(C)(O)[C@@H](O)Cn1cc(CN2CCC3(CC2)OC(C(N)=O)c2ccc(Cl)cc23)cn1 (stereo partly drawn) [Compound 277, 5-chloro-1′-[[1-[(2S)-2,3-dihydroxy-3-methyl-butyl]pyrazol-4-yl]methyl]spiro[1H-isobenzofuran-3,4′-piperidine]-1-carboxamide]",≤ 50
5,C[C@H]1C[C@@]2(CCN1Cc1cn(Cc3ncc(C(N)=O)s3)nn1)OCCc1ccc(Cl)cc12 [Compound 182],≤ 50
6,CS(=O)(=O)CCn1cc(CN2CCC3(CC2)C(=O)N(Cc2ccccc2)c2ccc(OC(F)F)cc23)cn1 [Compound 86],≥ 500
7,C[C@H]1C[C@@]2(CCN1Cc1cnn(CC(=O)N(C)C)c1)C(=O)Nc1ccc(Cl)cc12 [Compound 76],≤ 50
8,CN(C)c1ncc(CN2CCC3(CC2)C(=O)Nc2ccc(Cl)cc23)cn1 [Compound 9],50 to 500
9,NC(=O)C1OC2(CCN(Cc3cnc(N)nc3)CC2)c2cc(Cl)ccc21 (stereo not shown) [Compound 256],50 to 500
10,"CNC(=O)C1OC2(CCN(Cc3cnn(-c4cccc(C(F)(F)F)c4)c3)CC2)c2cc(Cl)ccc21 (stereo not shown) [Compound 295, 5-chloro-N-methyl-1′-[[1-[3-(trifluoromethyl)phenyl]pyrazol-4-yl]methyl]spiro[1H-isobenzofuran-3,4′-piperidine]-1-carboxamide]",≤ 50
11,"C[C@H]1CC2(CCN1Cc1cnn(-c3ccccc3)c1)OC(C(N)=O)c1ccc(Cl)cc12 (single isomer, unassigned) [Compound 293, (2′S)-5-chloro-2′-methyl-1′-[(1-phenylpyrazol-4-yl)methyl]spiro[1H-isobenzofuran-3,4′-piperidine]-1-carboxamide]",50 to 500
12,COCCn1cc(CN2CCC3(CC2)OC(C(N)=O)c2ccc(Cl)cc23)cn1 (stereo not shown) [Compound 236],50 to 500
13,C[C@H]1C[C@@]2(CCN1Cc1cncnc1)OCCc1ccc(Cl)cc12 [Compound 119],≤ 50
14,C[C@H]1C[C@@]2(CCN1Cc1cn(Cc3cc(=O)[nH]c(C4CC4)n3)nn1)OCCc1ccc(Cl)cc12 [Compound 163],50 to 500
15,NC(=O)C1OC2(CCN(Cc3cnn(C4CCS(=O)(=O)C4)c3)CC2)c2cc(Cl)ccc21 (stereo not shown) [Compound 219],≤ 50
16,O=C1Nc2ccc(Cl)cc2C12CCN(Cc1cccc(OC(F)F)c1)CC2 [Compound 14],≥ 500
17,NC(=O)C1OC2(CCN(Cc3cnccn3)CC2)c2cc(Cl)ccc21 (stereo not shown) [Compound 272],≥ 500
18,CS(=O)(=O)c1ccc(CN2CCC3(CC2)OC(C(N)=O)c2ccc(Cl)cc23)cc1 (stereo not shown) [Compound 223],50 to 500
19,NC(=O)C1OC2(CCN(Cc3c[nH]c4ncncc34)CC2)c2cc(Cl)ccc21 (stereo not shown) [Compound 229],≥ 500
20,C[C@H]1C[C@@]2(CCN1Cc1cnn(CCS(C)(=O)=O)c1)OC[C@@H](O)c1ccc(Cl)cc12 [Compound 133],≤ 50
21,NC(=O)Cn1cc(CN2CCC3(CC2)OC(C(N)=O)c2ccc(Cl)cc23)cn1 (stereo not shown) [Compound 285],50 to 500
22,COCCn1cc(CN2CCC3(CC2)C(=O)Nc2ccc(C)cc23)cn1 [Compound 27],≥ 500
23,C[C@H]1C[C@@]2(CCN1Cc1cnn(C[C@@H](O)C(C)(C)O)c1)OCCc1ccc(Cl)cc12 [Compound 124],≤ 50

# Reference: US20250195483A1, “SPIRO PIPERIDINE DERIVATIVES AS INHIBITORS OF APOL1 AND METHODS OF USING SAME” (Vertex Pharmaceuticals Incorporated, priority 2022, published 2025)
